Test results as given in PubChem BioAssay (NCI).
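Grown in 96-well plates, cells were treated for 48 hours with each compound at five concentrations. Insufficient inhibition: endpoint recorded as highest concentration tested. GI50: concentration for 50% inhibition of growth. TGI marks complete inhibition of growth.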

How the values were obtained:
Assay in all cases: growth of human tumour cells (NCI), 48 h
HOP-62 NSCLC = test system: HOP-62 NSCLC
CAKI-1 renal = test system: CAKI-1 renal
UO-31 renal = test system: UO-31 renal
OVCAR-3 ovarian = test system: OVCAR-3 ovarian
SW-620 colon = test system: SW-620 colon
PC-3 prostate = test system: PC-3 prostate
U251 CNS = test system: U251 CNS
SF-295 CNS = test system: SF-295 CNS
HL-60(TB) leukemia = test system: HL-60(TB) leukemia
OVCAR-5 ovarian = test system: OVCAR-5 ovarian
MOLT-4 leukemia = test system: MOLT-4 leukemia
UACC-62 melanoma = test system: UACC-62 melanoma
MDA-MB-468 breast = test system: MDA-MB-468 breast
IGROV1 ovarian = test system: IGROV1 ovarian
SNB-75 CNS = test system: SNB-75 CNS
HCT-15 colon = test system: HCT-15 colon
NCI-H226 lung = test system: NCI-H226 lung
M14 melanoma = test system: M14 melanoma
NCI-H460 lung = test system: NCI-H460 lung
HCT-116 colon = test system: HCT-116 colon
OVCAR-4 ovarian = test system: OVCAR-4 ovarian
SNB-19 CNS = test system: SNB-19 CNS
MDA-MB-231 breast = test system: MDA-MB-231 breast
OVCAR-8 ovarian = test system: OVCAR-8 ovarian
SF-539 CNS = test system: SF-539 CNS
ACHN renal = test system: ACHN renal
MDA-MB-435 = test system: MDA-MB-435
A549 NSCLC = test system: A549 NSCLC
SK-MEL-2 melanoma = test system: SK-MEL-2 melanoma
SN12C renal = test system: SN12C renal
SK-OV-3 ovarian = test system: SK-OV-3 ovarian
786-0 renal = test system: 786-0 renal
SR leukemia = test system: SR leukemia
RXF 393 renal = test system: RXF 393 renal
MCF7 breast = test system: MCF7 breast
NCI-H522 lung = test system: NCI-H522 lung
NCI-H23 lung = test system: NCI-H23 lung
SK-MEL-5 melanoma = test system: SK-MEL-5 melanoma
TK-10 renal = test system: TK-10 renal
BT-549 breast = test system: BT-549 breast
EKVX NSCLC = test system: EKVX NSCLC
HT29 colon = test system: HT29 colon
RPMI-8226 leukemia = test system: RPMI-8226 leukemia
A498 renal = test system: A498 renal
HOP-92 NSCLC = test system: HOP-92 NSCLC
MALME-3M melanoma = test system: MALME-3M melanoma
LOX IMVI melanoma = test system: LOX IMVI melanoma
SK-MEL-28 melanoma = test system: SK-MEL-28 melanoma
CCRF-CEM leukemia = test system: CCRF-CEM leukemia
KM12 colon = test system: KM12 colon
SF-268 CNS = test system: SF-268 CNS
DU-145 prostate = test system: DU-145 prostate
K-562 leukemia = test system: K-562 leukemia
T-47D breast = test system: T-47D breast
COLO 205 colon = test system: COLO 205 colon
UACC-257 melanoma = test system: UACC-257 melanoma
HS 578T breast = test system: HS 578T breast
HCC-2998 colon = test system: HCC-2998 colon

## CC1=C(C(=O)Nc2ccccc2)C(c2ccc3ccccc3c2)n2c(nc3ccccc32)N1 (stereo unspecified)
HOP-62 NSCLC
  GI50: 15.4 µM
  TGI: 31.6 µM
CAKI-1 renal
  GI50: 19.2 µM
  TGI: 56.3 µM
UO-31 renal
  GI50: 12.6 µM
  TGI: 39.9 µM
OVCAR-3 ovarian
  GI50: 16.4 µM
  TGI: 31.9 µM
SW-620 colon
  GI50: 22.3 µM
  TGI: > 100 µM
PC-3 prostate
  GI50: 12.4 µM
  TGI: 31.4 µM
U251 CNS
  GI50: 16.3 µM
  TGI: 32.5 µM
SF-295 CNS
  GI50: 17 µM
  TGI: 37.6 µM
HL-60(TB) leukemia
  GI50: 13.7 µM
  TGI: > 100 µM
OVCAR-5 ovarian
  GI50: 28 µM
  TGI: 95.6 µM
MOLT-4 leukemia
  GI50: 5.71 µM
  TGI: 72 µM
UACC-62 melanoma
  GI50: 20.3 µM
  TGI: 63.5 µM
MDA-MB-468 breast
  GI50: 14.1 µM
  TGI: 35.1 µM
IGROV1 ovarian
  GI50: 25.8 µM
  TGI: 85.7 µM
SNB-75 CNS
  GI50: 10.4 µM
  TGI: 30.5 µM
HCT-15 colon
  GI50: 16.4 µM
  TGI: 56.2 µM
NCI-H226 lung
  GI50: 12.9 µM
  TGI: 34.8 µM
M14 melanoma
  GI50: 33.4 µM
  TGI: > 100 µM
NCI-H460 lung
  GI50: 15 µM
  TGI: 33.6 µM
HCT-116 colon
  GI50: 13.4 µM
  TGI: 33.1 µM
OVCAR-4 ovarian
  GI50: 15.4 µM
  TGI: 45.3 µM
SNB-19 CNS
  GI50: 22.7 µM
  TGI: 59.2 µM
MDA-MB-231 breast
  GI50: 20.4 µM
  TGI: 41.5 µM
OVCAR-8 ovarian
  GI50: 16.9 µM
  TGI: 35.9 µM
SF-539 CNS
  GI50: 15.5 µM
  TGI: 30.4 µM
ACHN renal
  GI50: 17 µM
  TGI: 35.3 µM
MDA-MB-435
  GI50: 41.6 µM
  TGI: > 100 µM
A549 NSCLC
  GI50: 13.5 µM
  TGI: 33.2 µM
SK-MEL-2 melanoma
  GI50: 22.1 µM
  TGI: 71.5 µM
SN12C renal
  GI50: 17.1 µM
  TGI: 40.2 µM
SK-OV-3 ovarian
  GI50: 21.5 µM
  TGI: 85.7 µM
786-0 renal
  GI50: 19.6 µM
  TGI: 38.6 µM
SR leukemia
  GI50: 22 µM
  TGI: > 100 µM
RXF 393 renal
  GI50: 11.8 µM
  TGI: 40.5 µM
MCF7 breast
  GI50: 9.12 µM
  TGI: 27.7 µM
NCI-H522 lung
  GI50: 18.1 µM
  TGI: 45.7 µM
NCI-H23 lung
  GI50: 27.7 µM
  TGI: > 100 µM
SK-MEL-5 melanoma
  GI50: 58.6 µM
  TGI: > 100 µM
TK-10 renal
  GI50: 19.3 µM
  TGI: 48.6 µM
BT-549 breast
  GI50: 28 µM
  TGI: > 100 µM
EKVX NSCLC
  GI50: 16 µM
  TGI: 46.2 µM
HT29 colon
  GI50: 24.4 µM
  TGI: 69.2 µM
RPMI-8226 leukemia
  GI50: 20 µM
  TGI: > 100 µM
A498 renal
  GI50: 23.3 µM
  TGI: 63.3 µM
HOP-92 NSCLC
  GI50: 15.3 µM
  TGI: 36.5 µM
MALME-3M melanoma
  GI50: 18.3 µM
  TGI: 40.3 µM
LOX IMVI melanoma
  GI50: 14.3 µM
  TGI: 31 µM
SK-MEL-28 melanoma
  GI50: 21.2 µM
  TGI: 56.4 µM
CCRF-CEM leukemia
  GI50: 8.63 µM
  TGI: > 100 µM
KM12 colon
  GI50: 31.9 µM
  TGI: > 100 µM
SF-268 CNS
  GI50: 27.3 µM
  TGI: > 100 µM
DU-145 prostate
  GI50: 18.2 µM
  TGI: 62.3 µM
K-562 leukemia
  GI50: 7.06 µM
  TGI: > 100 µM
T-47D breast
  GI50: 58.5 µM
  TGI: > 100 µM
COLO 205 colon
  GI50: 26.5 µM
  TGI: > 100 µM
UACC-257 melanoma
  GI50: 67.1 µM
  TGI: > 100 µM
HS 578T breast
  GI50: 15.6 µM
  TGI: 57.2 µM
HCC-2998 colon
  GI50: 34 µM
  TGI: > 100 µM
